Test results: paper PMC7395068, “The evolution of strategies to minimise the risk of human drug-induced liver injury (DILI) in drug discovery and development” (Archives of Toxicology, 2020)
Like-named read-outs stand apart in the source and are kept apart here.

What was measured:
[1] = cited from earlier work
human hepatocytes = conditions: cited from earlier work
[2] = cited from earlier work; remark: listed apart in the source
PHH spheroids = conditions: In vitro Assay; ref Vorrink 2018; cited from earlier work
PHH = conditions: In vitro Assay; ref Proctor 2017; cited from earlier work
[3] = system: isolated mouse liver mitochondria; conditions: In vitro Assay; ref Porceddu 2012; cited from earlier work
hLiMTs [4] = conditions: In vitro Assay; ref Proctor 2017; cited from earlier work
[5] = system: primary human hepatocytes, NIH3T3 fibroblasts, BSEP, CYP3A4; conditions: In vitro Assay; ref Schadt 2015; cited from earlier work
rBsep = conditions: cited from earlier work
hLiMTs [6] = test: Combined HCI (HCS) and cellular ATP 3D assay in hLiMTs; conditions: Homo sapiens
HepaRG spheroids = test: Combined HCI (HCS) and cellular ATP 3D assay in HepaRG spheroids; conditions: Homo sapiens, HepaRG

SMILES | In vivo DILI ([1]; ref Vorrink 2018) | In vivo DILI ([1]; ref Xu 2008) | DILI +VE (5-8), DILI -VE (-4) ([2]; ref Chen 2016) | DILI severity category ([2]; ref Chen 2016) | hLiMTs ATP <20 x Cmax (PHH spheroids) | Structural based (HCI) (human hepatocytes; In vitro Assay, ref Xu 2008) | further results
CCCSc1ccc2nc(NC(=O)OC)[nH]c2c1 [albendazole] | +VE | +VE | +VE | vMost-DILI-Concern | -VE |  | Structural based (HCI) (human hepatocytes): +VE
N=C(N)NC(=O)c1nc(Cl)c(N)nc1N [amiloride] |  |  |  |  | -VE |  | In vivo DILI ([1]; in vivo): -VE; DILI +VE (5-8), DILI -VE (-4) ([2]; in vivo): +VE; DILI severity category ([2]; in vivo): vLess-DILI-Concern
CCC1(c2ccc(N)cc2)CCC(=O)NC1=O (centres unmarked) [aminoglutethimide] | -VE | -VE |  |  | -VE | -VE | 
Clc1ccc2c(c1)C(N1CCNCC1)=Nc1ccccc1O2 [amoxapine] | -VE | -VE | -VE | Ambiguous DILI-concern | -VE | -VE | 
Nc1cc(-c2ccncc2)c[nH]c1=O [amrinone] | +VE | +VE | -VE | Ambiguous DILI-concern | -VE | -VE | 
CC(C)c1c(C(=O)Nc2ccccc2)c(-c2ccccc2)c(-c2ccc(F)cc2)n1CC[C@@H](O)C[C@@H](O)CC(=O)O [atorvastatin] |  |  |  |  |  |  | PHH ATP <100uM (PHH): -VE; in vitro data EC20<=2uM [3]: +VE; hLiMTs ATP <100uM (hLiMTs [4]): +VE (IC50 threshold of 100 µM)
CC(C)COCC(CN(Cc1ccccc1)c1ccccc1)N1CCCC1 (centres unmarked) [bepridil] | +VE | +VE |  |  | +VE (IC20 < 20 × Cmax.tot cut-off) | +VE | 
C[C@]12CC[C@@H]3c4ccc(O)cc4CC[C@H]3[C@@H]1CC[C@@H]2O [beta-estradiol] |  |  |  |  |  |  | PHH ATP <100uM (PHH): -VE; in vitro data EC2<=1x Cmax [3]: -VE; in vitro data EC20<=2uM [3]: -VE; hLiMTs ATP <100uM (hLiMTs [4]): +VE (IC50 threshold of 100 µM)
CN(C)CCC(c1ccc(Br)cc1)c1ccccn1 (centres unmarked) [brompheniramine] |  |  |  |  | -VE | -VE | 
C[C@H](CCC(=O)O)[C@H]1CC[C@H]2[C@@H]3[C@H](O)C[C@@H]4C[C@H](O)CC[C@]4(C)[C@H]3CC[C@]12C [chenodiol] | +VE | +VE | -VE | Ambiguous DILI-concern | +VE (IC20 < 20 × Cmax.tot cut-off) | +VE | 
Cc1cc(C2CCCCC2)n(O)c(=O)c1 [ciclopirox] | -VE | -VE |  |  | -VE | -VE | 
[H]/N=C(/N)c1ccc(NCc2nc3cc(C(=O)N(CCC(=O)O)c4ccccn4)ccc3n2C)cc1 [dabigatran] |  |  |  |  |  |  | In vivo DILI ([1]; ref Proctor 2017): -VE; In vivo DILI ([1]; ref Schadt 2015): -VE; Cellular toxicity (3T3 cells) [5]: -VE; Combined Assay [5]: -VE; GSH adduct HML [5]: -VE; Hepatocyte cellular toxicity [5]: +VE; MitoTox 3T3 [5]: -VE; TDI CYP3A4 [5]: -VE; hBSEP inhibition [5]: +VE; PHH ATP <100uM (PHH): -VE; hLiMTs ATP <100uM (hLiMTs [4]): -VE
CCN(CC)C(=O)N1CCN(C)CC1 [diethylcarbamazine] |  |  |  |  | -VE | -VE | 
COc1ccc([C@@H]2Sc3ccccc3N(CCN(C)C)C(=O)[C@@H]2OC(C)=O)cc1 [diltiazem] |  |  |  |  | -VE | -VE | 
CC(CCc1ccc(O)cc1)NCCc1ccc(O)c(O)c1 (centres unmarked) [dobutamine] | -VE | -VE | -VE | vNo-DILI-Concern | -VE | -VE | 
COc1cc2c(cc1OC)C(=O)C(CC1CCN(Cc3ccccc3)CC1)C2 (centres unmarked) [donepezil] |  |  |  |  |  |  | Inhibition of rBsep cutoff<3 (rBsep): -VE; AC50 (hLiMTs [6]; read-out: ATP endpoint AC50): 9.76 µM; minimal effective concentration (hLiMTs [6]; read-out: ATP endpoint MEC): 3.17 µM; AC50 (hLiMTs [6]; read-out: HCS endpoint AC50): 7.19 µM; minimal effective concentration (hLiMTs [6]; read-out: HCS endpoint MEC): 0.487 µM; minimal effective concentration (HepaRG spheroids; read-out: ATP endpoint MEC): 6.49 µM; minimal effective concentration (HepaRG spheroids; read-out: HCS endpoint MEC): 9.43 µM
